Where two headings read alike, the source gives them in different places.
Legend:
E. coli DHB4 WT = experiment: MIC of silver and ebselen on E. coli DHB4 redox phenotypes; assay type: cell-based, Escherichia coli; conditions: 24 h; for MIC: Escherichia coli, DHB4WT, read-out: MIC of ebselen in the presence of silver
Experimental: Since Trx and GSH/Grx are major thiol-dependent systems, investigated were the effects of Ag^+ with ebselen in combination on Trx or GSH system-deficient E. coli redox mutants.
Serial dilutions of ebselen and AgNO3 were added to the individual wells. The minimum inhibitory concentration (MIC) was determined after 24 h culture at 37° C.

E. coli DHB4 [1] = experiment: E. coli growth curves in 15 ml tubes, OD600 nm; assay type: cell-based, Escherichia coli
Experimental: The large scale growth inhibition of E. coli by Ag^+ with ebselen in combination was also observed in shaking testing 15 ml tubes. […] PI is a membrane-impermeable fluorescent dye that has been widely used to detect permeation of cell membrane and dead cells.
E. coli DHB4 cells were grown in 15 ml tubes until an OD600 nm of 0.4, and treated with 5 μM AgNO3 and serial concentration of ebselen (0, 20, 40, 80 μM) in combination. The survival of untreated E. coli was compared with the antibiotic-treated cells by measuring OD600 nm and counting the colonies. For colony formation assay, cells were harvested at 10 min, 1 h, 2 h, and 4 h by centrifugation at 6,000 rpm for 5 min and thoroughly washed 3 times with PBS. The cells were serially diluted in PBS, and 100 μl cultures were plated on LB plates. The colonies were counted after overnight incubation, and CFU/ml was calculated using the following formula: [(colonies)*(dilution factor)]/(amount plated).

E. coli Trx = target: T1, E. coli Trx (Escherichia coli, UniProt P0AA25); assay type: cell-based; conditions: Ag^+ or ebselen alone
T1 construct: endogenous in cells; host or cells: E. coli DHB4
T1 sequence (P0AA25 2-109): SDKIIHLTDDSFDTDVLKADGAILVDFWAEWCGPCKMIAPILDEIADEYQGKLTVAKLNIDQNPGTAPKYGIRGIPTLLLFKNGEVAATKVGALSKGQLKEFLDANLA

GSH = GSH amount in treated E. coli cell extracts, GR-coupled DTNB reduction; assay type: cell-based, Escherichia coli
E. coli Trx1 = E. coli Trx1 (Escherichia coli, UniProt P0AA25)
E. coli Trx1, sequence (P0AA25 2-109): as above
Experimental: (§1) Since ebselen is a known reversible competitive inhibitor of bacterial TrxR, the effect of Ag^+ on the activity of E. coli TrxR and Trx was investigated.
(§2) Inhibition of recombinant bacterial TrxR by Silver was performed by using E. coli enzyme. The experiments were performed with 96 micro-well plates in the solution containing 50 mM Tris.HCl (pH 7.5), 200 μM NADPH, 1 mM EDTA, 1 mM DTNB, in the presence of 5 μM E. coli Trx. The absorbance at 412 nm was measured for 5 min with a VERSA micro-well plate reader and the slope of initial 2 min was used to represent TrxR activity. The Trx activity was detected by this method, coupled with the use of 100 nM E. coli TrxR instead of 5 μM E. coli Trx in the reaction mixture.

E. coli TrxR = E. coli TrxR (Escherichia coli, UniProt P0A9P4)
E. coli TrxR, sequence (P0A9P4 2-321 limits assumed): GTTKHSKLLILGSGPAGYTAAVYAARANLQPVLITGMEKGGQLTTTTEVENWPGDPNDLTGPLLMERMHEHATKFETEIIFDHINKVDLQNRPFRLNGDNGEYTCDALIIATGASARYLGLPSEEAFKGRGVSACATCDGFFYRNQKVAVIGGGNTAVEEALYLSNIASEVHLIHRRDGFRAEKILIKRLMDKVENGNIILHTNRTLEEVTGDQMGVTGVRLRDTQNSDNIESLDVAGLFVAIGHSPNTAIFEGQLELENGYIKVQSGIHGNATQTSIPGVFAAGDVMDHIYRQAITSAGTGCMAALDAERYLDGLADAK
Experimental: as §1, §2

E. coli DHB4 [2] = experiment: ROS production, H2DCF-DA staining, flow cytometry; assay type: cell-based, Escherichia coli; conditions: 5 μM Ag^+ alone or 20 μM ebselen alone
Experimental: (§3) The E. coli DHB4 cells were grown till the absorbance at OD600 nm of 0.4 in LB medium, and the bacterial cells were treated with different combinations of ebselen and AgNO3 for 10 min. To analyze the amount of ROS production in the bacteria, cells were harvested by centrifugation at 6,000 rpm for 5 min and thoroughly washed 3 times with PBS, and stained with 5 μM H2DCF-DA for 20 min. After the incubation, cells were spin down and re-suspended in PBS, and the ROS production was quantified by flow cytometry (CyAn adp, Beckman coulter).
as §3, with “silver and antibiotics in” for “different”, “combinations” for “combinations of ebselen and AgNO3”, “spun” for “spin”, “(CyAnadp,” for “(CyAn adp,”

reduced E. coli Trx1 = reduced E. coli Trx1 (Escherichia coli, UniProt P0AA25); conditions: excitation 280 nm
reduced E. coli Trx1, sequence (P0AA25 whole entry): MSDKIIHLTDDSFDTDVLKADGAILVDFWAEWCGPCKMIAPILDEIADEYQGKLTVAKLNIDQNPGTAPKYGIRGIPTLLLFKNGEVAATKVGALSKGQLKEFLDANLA
Experimental: Pure recombinant 100 nM TrxR, and 5 μM Trx mixture were incubated with AgNO3 solution in the presence of 200 μM NADPH, and then their activities were detected by DTNB reduction assay. FIG. 4B is a fluorescent spectra of a complex between reduced E. coli 10 μM Trx1 with AgNO3. Reduced 10 μM E. coli Trx1 protein was incubated with a serial concentration of AgNO3 solution and the fluorescent spectra was detected with an excitation wavelength at 280 nm. Oxidized Trx1 (Trx-S2) was used as a control. […] After the treatment described in (B), Trx activity was assayed by a DTNB method in the presence of E. coli Trx1. […] Silver-inhibited E. coli Trx1 was passed through a desalting column to remove small molecules and then Trx activity was measured. E. coli Trx1 without the inhibition was used as a control.
Fluorescent Spectra of reduced E. coli Trx with Silver were recorded at 10 μM in a PerkinElmer Enspire multilabel recorder using an excitation at 280 nm.

[3] = system: KP-2: K. pneumonia subsp. pneumonia 0322#; experiment: MIC of silver with antibiotics on clinical isolated MDR Gram-negative bacteria; assay type: cell-based, Klebsiella pneumonia; conditions: antibiotic 4 μM
Experimental: (§4) There are five clinically most difficult-to-treat MDR Gram-negative pathogen species: Klebsiella pneumonia, Acinetobacter baumannii, Pseudomonas aeruginosa, Enterobacter cloacae and Escherichia coli. One strain from each species was isolated, and overnight cultures were diluted 1:1000 times in LB medium, and treated with serial concentrations of Ag^+ and antibiotics in combinations for 24 h (Table 10).
(§5) Five clinical isolated MDR Gram-negative strains were grown until an OD600 nm of 0.4, and were diluted 1:1,000 into 100 μl LB medium in 96 micro-well plates. […] The cultures treated with the same serial dilutions of 100 μl ebselen and silver nitrate were used as the positive control.

[4] = system: AB-1: Acinetobacter baumannii H#; experiment: as above; assay type: cell-based; conditions: antibiotic 4 μM
Experimental: as §4, §5

[5] = system: ECO-1: Escherichia coli 1139#; experiment: as above; assay type: cell-based; conditions: antibiotic 4 μM
Experimental: as §4, §5

[6] = system: PA-1: Pseudomonas aeruginosa 1298#; experiment: as above; assay type: cell-based; conditions: antibiotic 4 μM
Experimental: as §4, §5

ECL-2: E. cloacae 2301# = experiment: as above; assay type: cell-based, Enterobacter cloacae; conditions: antibiotic 4 μM
Experimental: as §4, §5

[7] = 40 μM ebselen or 5 μM Ag^+ alone
[8] = 5 μM Ag^+ alone or 20 μM ebselen alone, compared with control

Compound: O=[N+]([O-])[O-].[Ag+] [silver, silver nitrate]
- MIC of silver in the presence of ebselen (E. coli DHB4 WT; Ebselen 0 μM): 40 µM
- MIC of silver in the presence of ebselen (E. coli DHB4 WT; Ebselen 1 μM): 10 µM
- MIC of silver in the presence of ebselen (E. coli DHB4 WT; Ebselen 2 μM): 5 µM
- MIC of silver in the presence of ebselen (E. coli DHB4 WT; Ebselen 4 μM): 1.25 µM
- E. coli growth (OD600 nm) (E. coli DHB4 [1]; [7]): did not inhibit bacterial growth
- Trx activities in cell extracts (E. coli Trx): not influenced
- GSH levels (GSH; [8]): neither 5 μM Ag^+ nor 20 μM ebselen modulated GSH levels
- reversibility of the inhibition of Trx1 (E. coli Trx1; Trx1 activity after desalting): irreversible
- activity of Trx (E. coli Trx1; along with the increase of Ag^+ concentration, 10 μM Trx1): decreased
- inhibitory efficiency toward TrxR (E. coli TrxR; in the presence of reduced E. coli Trx1): decreased
- IC50 (E. coli TrxR; read-out: IC50 on E. coli TrxR, 100 nM NADPH-pre-incubated E. coli TrxR): ~50 nM
- ROS concentrations (E. coli DHB4 [2]): did not change ROS concentrations
- tryptophan fluorescence intensity of 10 μM Trx1 (reduced E. coli Trx1; 1-10 μM Ag^+): increased the tryptophan fluorescence intensity
- fluorescent intensity of 10 μM Trx1 (reduced E. coli Trx1; 20-100 μM Ag^+): decreased

Compound: O=c1c2ccccc2[se]n1-c1ccccc1 [ebselen, 2-phenyl-1,2-benzisoselenazol-3(2H)-one]
- MIC (E. coli DHB4 WT; Silver 0 μM): 80 µM
- MIC (E. coli DHB4 WT; Silver 0.625 μM): 8 µM
- MIC (E. coli DHB4 WT; Silver 1.25 μM): 4 µM
- MIC (E. coli DHB4 WT; Silver 2.5 μM): 4 µM
- MIC (E. coli DHB4 WT; Silver 5 μM): 2 µM
- MIC (E. coli DHB4 WT; Silver 10 μM): 1 µM
- MIC (E. coli DHB4 WT; Silver 20 μM): 0.5 µM
- MIC of silver in the presence of different antibiotics [3]: 40 µM
- MIC of silver in the presence of different antibiotics [4]: 10 µM
- MIC of silver in the presence of different antibiotics [5]: 5 µM
- MIC of silver in the presence of different antibiotics [6]: 20 µM
- MIC of silver in the presence of different antibiotics (ECL-2: E. cloacae 2301#): 10 µM
- E. coli growth (OD600 nm) (E. coli DHB4 [1]; [7]): did not inhibit bacterial growth
- E. coli growth (OD600 nm) (E. coli DHB4 [1]; 80 μM ebselen alone, back to normal 12 h post-treatment): could inhibit E. coli growth in first 8 h
- Trx activities in cell extracts (E. coli Trx): not influenced
- GSH levels (GSH; [8]): neither 5 μM Ag^+ nor 20 μM ebselen modulated GSH levels
- GSH levels (GSH; ebselen alone at 80 and 40 μM): reduced GSH levels
- ROS concentrations (E. coli DHB4 [2]): did not change ROS concentrations
